{"source": "paper PMC8410669", "about": "(Neuropharmacology, 2021)", "key": {"[1]": {"settings": "ref Kandasamy et al., 2021; cited from earlier work"}, "MOR": {"tested_on": "MOR", "settings": "ref Kandasamy et al., 2021; cited from earlier work"}, "C57BL/6 mice": {"tested_on": "C57BL/6 mice", "assay": "Naloxone-precipitated opioid withdrawal paradigm", "format": "in vivo, mouse", "settings": "morphine 10 mg/kg s.c. or oxycodone 3.5 mg/kg s.c. twice a day for 5 consecutive days"}, "female C57Bl/6 mice": {"tested_on": "female C57Bl/6 mice", "assay": "Respiratory and heart rate measurements", "format": "in vivo, mouse"}, "δ-opioid receptor (DOR)": {"tested_on": "δ-opioid receptor (DOR)", "settings": "ref Stanczyk et al., 2019; cited from earlier work"}, "[2]": {"settings": "high dose 30 mg/kg s.c., compared with vehicle"}}, "data": [{"smiles": "COc1ccc(C2SCCN2S(=O)(=O)c2ccc(Cl)cc2)cc1Br", "note": "(centres unmarked) [BMS-986122]", "values": [{"measurement": "antinociception and side effects in vivo", "setting": "[1]", "value": "produces antinociception with reduced side effects"}, {"measurement": "G protein activation vs β-arrestin recruitment", "setting": "MOR", "value": "enhance G protein activation to a greater extent than β-arrestin recruitment"}]}, {"smiles": "CN1CC[C@]23c4c5ccc(O)c4O[C@H]2[C@@H](O)C=C[C@H]3[C@H]1C5", "note": "[morphine]", "values": [{"measurement": "naloxone-precipitated withdrawal syndrome of the opioid", "setting": "C57BL/6 mice", "value": "mild withdrawal syndrome"}, {"measurement": "breathing rate (respiratory depression)", "setting": "female C57Bl/6 mice; [2]", "value": "caused significant respiratory depression"}, {"measurement": "heart rates", "setting": "female C57Bl/6 mice; [2]", "value": "decrease in heart rates"}, {"measurement": "dose for respiratory depression relative to dose required for analgesia", "setting": "female C57Bl/6 mice; mice", "value": "three to five times"}]}, {"smiles": "COc1ccc2c3c1O[C@H]1C(=O)CC[C@@]4(O)[C@@H](C2)N(C)CC[C@]314", "note": "[oxycodone]", "values": [{"measurement": "naloxone-precipitated withdrawal syndrome of the opioid", "setting": "C57BL/6 mice", "value": "mild withdrawal syndrome"}]}, {"smiles": "Cc1ccccc1COc1ccc(C2C3=C(CC(C)(C)CC3=O)OC3=C2C(=O)CC(C)(C)C3)cc1", "note": "[BMS-986187]", "values": [{"measurement": "G protein activation vs β-arrestin recruitment", "setting": "δ-opioid receptor (DOR)", "value": "enhance G protein activation to a greater extent than β-arrestin recruitment"}]}]}
